Experimental data from US20220356170A1, “SREBP INHIBITOR COMPRISING A THIOPHENE CENTRAL RING” (Capulus Therapeutics, LLC, priority 2019, published 2022).
Where two headings read alike, the source gives them in different places.

Legend:
[1] = In vivo pharmacokinetics, intravenous; settings: male C57 BL/6 mice, dose 2.00 mg/kg (Compound 1), 2.43 mg/kg (Compound 2); for Vd: male, C57 BL/6, mouse, iv
Description: (§1) The in vivo pharmacokinetic properties of Compound 1 by both intravenous and oral administration were evaluated in male C57 BL/6 mice. The in vivo pharmacokinetic properties of Compound 2 by both intravenous and oral administration were evaluated in male C57 BL/6 mice for comparison.
(§2) Animals were housed in cages with clean bedding. Certified rodent diet was provided. Water was available ad libitum. Environmental controls for the animal room were set to maintain a temperature of 22 to 25° C., humidity of 40-70% RH, and a 12-hour light /12-hour dark cycle. Normal healthy animals certified by the attending veterinarian were selected and acclimatized for minimum three days prior to initiation of study.
(§3) Procedure for Blood Withdrawal: Mice were anesthetized using gaseous anesthesia. Blood samples were collected through a capillary, guided in retro-orbital plexus. At each time point, blood samples from 3 mice of each respective group were collected. The blood samples were collected in pre-labeled tubes. 0.2 to 0.3 mL of blood were collected from each mouse. After collection of the blood samples at each time point, the samples were stored on ice prior to centrifugation. Blood samples were centrifuged within 15 minutes to separate plasma. Centrifugations was done at 1540 rcf (5000 rpm) at 4° C. for 10 minutes. The plasma was separated and transferred to pre-labeled micro-centrifuge tubes and promptly frozen at −80±10° C. until bioanalysis was performed. Samples were identified by test item, group, animal number, and collection time point.
(§4) To evaluate pharmacokinetic properties of intravenous delivery, nine male C57 BL/6 mice were administered 2.00 mg Compound 1/kg animal weight through the tail vein. The concentration of Compound 1 in the plasma of the animals was evaluated at 0.083, 0.25, 0.5, 1, 2, 4, 8, and 24 hr by taking blood samples from the mice. Compound 2 was similarly administered for comparison.

[2] = In vivo pharmacokinetics, oral; settings: male C57 BL/6 mice
Description: as §1, §2, §3
as §4, with “oral” for “intravenous”, “10” for “2.00”, “by mouth.” for “through the tail vein.”, “at” for “at 0.083,”, “4, 6,” for “4,”, “samples.” for “samples from the mice.”

[3] = mouse, plasma, oral, dose 10.00 mg/kg (Compound 1), 12.01 mg/kg (Compound 2)

CC(C)(CO)c1cc(-c2csc(-c3ccc(C(=O)N4CCC(O)CC4)cc3Cl)c2)ccn1 [Compound 2, reference compound]
AUCExtra [1]: 0.48%
Vd ([1]; plasma, read-out: Vd): 4.55 L/kg
Vd ([1]; plasma, read-out: Vss): 2.32 L/kg
AUC(0-inf) ([1]; mouse, plasma): 2820 ng·h/mL
AUC(0-t) ([1]; mouse, plasma): 2810 ng·h/mL
C0 ([1]; mouse, plasma): 2670 ng/mL
clearance ([1]; mouse, plasma): 14.3 mL/min/kg
half-life ([1]; mouse, plasma): 3.67 h
MRT last ([1]; mouse, plasma, read-out: MRT0-last): 2.56 h
bioavailability ([2]; mouse, plasma, oral vs intravenous): 66.6%
AUC(0-inf) [2, 3]: 9300 ng·h/mL
AUC(0-t) [2, 3]: 8060 ng·h/mL
Cmax [2, 3]: 2180 ng/mL
Tmax [2, 3]: 0.25 h
half-life [2, 3]: 9.46 h
MRT last ([2]; mouse, plasma, oral, dose 10.00 mg/kg (Compound 1), 12.01 mg/kg (Compound 2), read-out: MRT0-last): 6.61 h
AUCExtra ([2]; oral, dose 10.00 mg/kg (Compound 1), 12.01 mg/kg (Compound 2)): 13.38%
